Experimental data from US6517808B1, “Methods for boron delivery to mammalian tissue” (The Regents of the University of California, priority 1993, dated 2003).
Blank lines part the entries; values can stand above or below the substance they belong to.

Legend:
EMT6 tumors = test: murine biodistribution study (boron concentration in tissues by ICP-AES); type: in vivo, BALB/c mice
Procedure: The concentration of boron can be determined by inductively coupled plasma atomic emission spectroscopy (ICP-AES).
All murine biodistribution studies utilized female BALB/c mice (16-20 g), with EMT6 tumors implanted in the right flank 7-10 days prior to the experiment. […] Injections of liposome emulsions (200 μl) were made in the tail vein. Prior to sacrifice, each mouse was anesthetized with halothane and bled into heparinized syringes via cardiac puncture. The blood was then placed into tared cryogenic tubes. While under anesthesia, the mice were euthanized via cervical dislocation. The tumor, liver, and spleen were dissected and also placed in tared cryogenic tubes. Blood and tissues were stored frozen until analyzed.
Biodistributions are plotted as boron concentration in micrograms of boron per gram of tissue on the Y axis and time in hours on the X axis. In general, four tissues are analyzed: tumor and blood because of their therapeutic interest, and liver and spleen because these tissues are known to competitively bind liposomes in vivo.

[1] = chemical stability of borane anions towards water / moisture; type: physicochemical
Excerpt: The cleanest reaction is observed employing [Ph3PMe][B10H10] in CH2Cl2, but the reaction can be used with several salts of [B10H10]^2− including preferably cesium. tetramethylammonium and triethylammoniuim and with other solvents such as acetonitrile and tetrahydrofuran. […] The substituted boron is indicated by a high field resonance at −43.8 ppm (relative to BF3. Et2O) which is a singlet in the proton coupled spectrum. [Ph3PMe][2-B10H9CO] may be isolated a a light tan solid in 85% yield, or the reaction mixture may be used directly in further reactions. […] [Ph3PMe]2[2-B10H9CO2H] has been confirmed by crystallographic analysis.
A very useful transformation of [2-B10H9CO]^− occurs from its reaction with azide ion in acetonitrile. The carbonyl undergoes a Curtius-type rearrangement to form the isocyanate [2-B10H9NCO]^2−, indicated by an infrared absorption at 2304 cm^−1. […] The [2-B10H9CO]^− ion therefore offers a high-yield route to the production of many boron-rich species for boron neutron capture therapy. Detailed protocols of preparing certain of these species is as follows: […]

Substance: Na2B10H10 [reference compound]
- tumor uptake begins at (initial tumor boron concentration) (EMT6 tumors; FIG. 4, BALB/c mice bearing EMT6 tumors, tail vein injection): 10 µg/g

Substance: Na3B20H17NH3 [free Na3B20H17NH3]
- initial distribution (accumulation) in the tumor (EMT6 tumors; FIG. 10, free, not liposome-encapsulated, injected in buffer): about 8 ppm

- sensitivity to moisture ([1]; in the solid state or in solution): relatively insensitive to moisture
Substance: [2-B10H9CO]^−

- stability in acidic media ([1]; acidic media): rapidly hydrolyzed
- stability in neutral aqueous solution ([1]; neutral aqueous solution): stable
Substance: [2-B10H9NCO]^2−
